Experimental data taken from ChEMBL document CHEMBL3856182, “How much successful are the medicinal chemists in modulation of SIRT1: A critical review” (Eur J Med Chem, 2016).
Converted amounts (≈) assume the structure as drawn. Blank lines part the entries; values can stand above or below the molecule they belong to.

How the values were obtained:
[1] = biological target: T1, NAD-dependent protein deacetylase sirtuin-1 (Homo sapiens, UniProt Q96EB6); assay: Activation of recombinant human SIRT1 assessed as increase in deacetylation of Fluor de Lys-SIRT1-specific substrate after 2 hrs by HTS assay
T1 sequence (Q96EB6 whole entry): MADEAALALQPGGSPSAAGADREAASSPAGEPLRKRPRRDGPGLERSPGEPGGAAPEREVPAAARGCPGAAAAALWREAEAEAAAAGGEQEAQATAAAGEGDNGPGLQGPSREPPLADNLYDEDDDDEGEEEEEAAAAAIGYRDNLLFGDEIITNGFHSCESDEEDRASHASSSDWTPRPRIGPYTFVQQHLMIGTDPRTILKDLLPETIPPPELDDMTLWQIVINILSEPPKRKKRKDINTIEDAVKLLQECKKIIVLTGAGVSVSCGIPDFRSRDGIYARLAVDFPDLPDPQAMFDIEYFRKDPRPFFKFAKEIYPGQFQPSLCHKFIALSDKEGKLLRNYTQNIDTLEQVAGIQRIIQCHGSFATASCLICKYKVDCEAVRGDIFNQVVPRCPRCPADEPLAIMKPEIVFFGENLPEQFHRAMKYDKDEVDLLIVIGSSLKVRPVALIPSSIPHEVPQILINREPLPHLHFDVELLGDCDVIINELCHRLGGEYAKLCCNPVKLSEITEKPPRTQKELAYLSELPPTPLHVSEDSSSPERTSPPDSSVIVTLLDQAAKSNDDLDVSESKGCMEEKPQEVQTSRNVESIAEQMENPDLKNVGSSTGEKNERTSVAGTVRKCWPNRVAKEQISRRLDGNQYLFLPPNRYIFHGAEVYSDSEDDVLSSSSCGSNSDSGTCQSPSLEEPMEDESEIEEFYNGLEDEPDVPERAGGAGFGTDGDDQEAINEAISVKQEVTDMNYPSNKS

[2] = Cytotoxicity against human kidney cancer cells; type: functional; conditions: Cancer cell lines
[3] = Cytotoxicity against human lung cancer cells; type: functional; conditions: Cancer cell lines
[4] = Cytotoxicity against human prostate cancer cells; type: functional; conditions: Cancer cell lines
[5] = Cytotoxicity against human breast cancer cells; type: functional; conditions: Cancer cell lines
[6] = Cytotoxicity against human colon cancer cells; type: functional; conditions: Cancer cell lines
[7] = Cytotoxicity against human leukemia cells; type: functional; conditions: Leukemia cell
[8] = Cytotoxicity in human MDA-MB-231 cells assessed as growth inhibition measured after 48 hrs by MTT assay; type: functional; conditions: MDA-MB-231, 48 h
[9] = Cytotoxicity in HEK293 cells assessed as growth inhibition measured after 48 hrs by MTT assay; type: toxicity, cell-based; conditions: human
[10] = biological target: T1, NAD-dependent protein deacetylase sirtuin-1; assay: Inhibition of human SIRT1 assessed as deacetylation activity preincubated with protein followed by addition of AMC-tagged Arg-His-Lys-Lys(Ac) (379 to 382 residues) as substrate measured after 45 mins in presence of NAD+ by fluorescence assay
[11] = Cytotoxicity in human U937 cells assessed as growth inhibition measured after 48 hrs by MTT assay; type: functional; conditions: U-937, 48 h
[12] = Cytotoxicity in human LNCAP cells assessed as growth inhibition measured after 48 hrs by MTT assay; type: functional
[13] = Cytotoxicity in human Caco2 cells assessed as growth inhibition measured after 48 hrs by MTT assay; type: functional; conditions: Caco-2, 48 h
[14] = biological target: T2, NAD-dependent protein deacetylase sirtuin-1 (Homo sapiens) (UniProt Q96EB6); assay: Activation of recombinant human SIRT1 using TPE-GK(Ac)YDD as substrate at 50 uM by fluorescence assay relative to control
T2 sequence (whole entry): T1 sequence (Q96EB6 whole entry)

[15] = biological target: T1, NAD-dependent protein deacetylase sirtuin-1; assay: Inhibition of recombinant SIRT1 (unknown origin) assessed as deacetylation activity using acetylated p53 as substrate measured after 2 hrs by Fluor de Lys assay
[16] = biological target: T1, NAD-dependent protein deacetylase sirtuin-1; assay: Inhibition of SIRT1 (unknown origin) using acetylated lysine as substrate by Fluor de Lys assay
[17] = biological target: T1, NAD-dependent protein deacetylase sirtuin-1; assay: Inhibition of recombinant human GST-tagged SIRT1 overexpressed in Escherichia coli DH5alpha assessed as deacetylation activity using [3H]-MPSDKTIGG as substrate measured after overnight incubation by liquid scintillation counting method
[18] = biological target: T3, NAD-dependent protein deacetylase sirtuin-2 (Homo sapiens, UniProt Q8IXJ6); assay: Inhibition of recombinant human GST-tagged SIRT2 overexpressed in Escherichia coli DH5alpha assessed as deacetylation activity using [3H]-MPSDKTIGG as substrate measured after overnight incubation by liquid scintillation counting method
T3 sequence (Q8IXJ6 whole entry): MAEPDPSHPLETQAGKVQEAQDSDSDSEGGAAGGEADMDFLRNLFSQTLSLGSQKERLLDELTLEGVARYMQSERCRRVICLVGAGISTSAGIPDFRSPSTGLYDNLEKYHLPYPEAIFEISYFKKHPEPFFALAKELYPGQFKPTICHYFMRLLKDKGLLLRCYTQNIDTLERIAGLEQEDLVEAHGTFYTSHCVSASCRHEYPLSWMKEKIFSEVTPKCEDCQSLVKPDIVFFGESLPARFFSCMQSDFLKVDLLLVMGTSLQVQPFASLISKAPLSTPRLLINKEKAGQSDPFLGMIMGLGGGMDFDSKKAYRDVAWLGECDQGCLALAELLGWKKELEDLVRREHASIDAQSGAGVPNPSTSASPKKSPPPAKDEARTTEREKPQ

[19] = biological target: T3, NAD-dependent protein deacetylase sirtuin-2; assay: Inhibition of human SIRT2 using biotin labeled histone H4 peptide with an acetylated lysine 4 as substrate measured after 1 hr by luminescence analysis
[20] = biological target: T1, NAD-dependent protein deacetylase sirtuin-1; assay: Inhibition of human SIRT1 using biotinylated peptide with an acetylated FLAG sequence as substrate measured after 3 hr in presence of NAD+ by TR-FRET assay
[21] = Drug absorption in human at 50 uCi, po up to 12 hrs using 14C-labeled compound by scintillation counting method; type: ADME, organism-based; conditions: in vivo
[22] = Oral bioavailability in rat at 50 or 150 mg/kg/day administered through gavage for 14 consecutive days by HPLC analysis; type: ADME, organism-based; conditions: in vivo
[23] = Oral bioavailability in human at 50 uCi up to 12 hrs using 14C-labeled compound by scintillation counting method; type: ADME, organism-based; conditions: in vivo
Saccharomyces cerevisiae = assay: Growth inhibition of yeast

SMILES: COCCCn1c(N)c(C(=O)NC2CCCC2)c2nc3ccccc3nc21
EC50 [1]: < 1 µM

SMILES: COc1ccc2c3c(c4cc(OC)c(OC)cc4c2c1)CN1CCCC[C@@H]1C3
GI50 [2]: 0.0002 to 0.1 µg/mL (≈ 0.00053 to 0.265 µM) | GI50 [3]: 0.0002 to 0.1 µg/mL (≈ 0.00053 to 0.265 µM) | GI50 [4]: 0.0002 to 0.1 µg/mL (≈ 0.00053 to 0.265 µM) | GI50 [5]: 0.0002 to 0.1 µg/mL (≈ 0.00053 to 0.265 µM) | GI50 [6]: 0.0002 to 0.1 µg/mL (≈ 0.00053 to 0.265 µM) | GI50 [7]: 0.0002 to 0.1 µg/mL (≈ 0.00053 to 0.265 µM)

SMILES: CC(C)=CCC[C@](C)(O[C@@H]1O[C@H](CO[C@@H]2O[C@@H](CO)[C@H](O)[C@H]2O)[C@@H](O)[C@H](O)[C@H]1O)[C@H]1CC[C@]2(C)[C@@H]1[C@H](O)C[C@@H]1[C@@]3(C)CC[C@H](O[C@@H]4O[C@H](CO)[C@@H](O)[C@H](O)[C@H]4O[C@@H]4O[C@H](CO)[C@@H](O)[C@H](O)[C@H]4O)C(C)(C)[C@@H]3CC[C@]12C
Activity [14]: 88%

SMILES: CC(C)=CCC[C@]1(C)[C@@H](CC=C(C)C)C[C@]2(CC=C(C)C)C(=O)C(CC=C(C)C)=C(O)[C@@]1(C(=O)C(C)C)C2=O
IC50 [17]: 15 µM | IC50 [18]: 28 µM

SMILES: Cn1ncnc2c(=O)n(C)c(=O)nc1-2
IC50 [19]: 14.4 µM | IC50 [20]: 0.87 µM

SMILES: Oc1ccc(/C=C/c2cc(O)cc(O)c2)cc1 [RESVERATROL]
Fabs [21]: 70% | bioavailability [22]: 20% | F [23]: 0.5%

SMILES: CC(C)=CCC[C@]1(C)[C@@H](CC=C(C)C)C[C@@]2(CC=C(C)C)C(=O)[C@]1(C(=O)C(C)C)C(=O)C(CC=C(C)C)=C2OCC(=O)O
IC50 [17]: 7 µM | IC50 [18]: 21 µM

SMILES: N#CC1=C(N)NC(SCC(=O)c2ccc(O)c(O)c2)=C(C#N)C1=C1C=CC(=O)C=C1
GI50 [8]: < 1 µM | GI50 at 48 h [9]: < 1 µM | IC50 [10]: 16.4 µM | GI50 [11]: < 1 µM | GI50 [12]: < 1 µM | GI50 [13]: < 1 µM

SMILES: CN(C)CCCCC(=O)Nc1ccc(NC(=S)NC(=O)c2ccc(C(C)(C)C)cc2)cc1
IC50 (Saccharomyces cerevisiae): 30 µM

Second part, led by results:

IC50 [10]: 32 µM
SMILES: Oc1ccccc1-c1nc2ccc(Cl)cn2c1NCc1ccc2c(c1)OCO2
GI50 [8]: < 1 µM | GI50 at 48 h [9]: < 1 µM | GI50 [11]: < 1 µM | GI50 [12]: < 1 µM | GI50 [13]: < 1 µM

IC50 [15]: 2.8 µM
SMILES: COc1ccc2[nH]c3c(c2c1)CCCC3C(=O)O (stereo not given)

IC50 [16]: > 100 µM
SMILES: NC(=O)c1cccc(Nc2ccccc2)c1

IC50 [16]: > 100 µM
SMILES: NC(=O)c1ccccc1Oc1ccccc1

Activity [14]: 28%
SMILES: COc1cc2c(c(OC)c1OC)-c1c(cc(OC)c(OC)c1OC)C[C@H](C)[C@H](C)C2

EC50 [1]: < 1 µM
SMILES: CCc1ccccc1-n1c(N)c(C(=O)NCC2CCCO2)c2nc3ccccc3nc21 (stereo not given)
